The record followed here is patent US11780826B2 (Amgen Inc., priority 2017, dated 2023).

The subject of this experiment is Bovine cardiac myofibrils. In words: In vitro model of dose-dependent myofibril ATPase modulation (AC1.4, pyruvate kinase/lactate dehydrogenase-coupled ATPase assay at pCa25). The format is biochemical. Particulars: concentration at which ATPase activity was 1.4-fold higher than the bottom of the dose curve, mean of a minimum of two independent tests. On the procedure:
In vitro Model of Dose-Dependent Myofibril ATPase Modulation: Dose responses were measured using a calcium-buffered, pyruvate kinase and lactate dehydrogenase-coupled ATPase assay containing the following reagents (concentrations expressed are final assay concentrations): Potassium PIPES (12 mM), MgCl2 (2 mM), ATP (1 mM), DTT (1 mM), BSA (0.1 mg/mi), NADH (0.5 mM), PEP (1.5 mM), pyruvate kinase (4 U/ml), lactate dehydrogenase (8 U/ml), and antifoam (90 ppm). The pH was adjusted to 6.80 at 22° C. by addition of potassium hydroxide.
Bovine cardiac myofibrils were obtained by homogenizing the appropriate tissue in the presence of detergent. Such treatment removes membranes and majority of soluble cytoplasmic proteins but leaves intact cardiac sarcomeric acto-myosin apparatus. Concentrations of myofibrils were adjusted to achieve the necessary rate of ATP hydrolysis (typically 0.25-1.0 mg/ml).
Assays were performed by first preparing a dilution series of test chemical entity, each with an assay mixture containing potassium Pipes, MgCl2, BSA, DTT, pyruvate kinase, lactate dehydrogenase, myofibrils, antifoam, EGTA, CaCl2, and water. The assay was started by adding an equal volume of solution containing potassium Pipes, MgCl2, BSA, DTT, ATP, NADH, PEP, antifoam, and water. ATP hydrolysis was monitored by absorbance at 340 nm. The resulting dose response curve was fit by the 4 parameter equation y=Bottom+((Top−Bottom)/(1+((EC50/X)^Hill))). […] AC1.4 values reported in the table below are mean values based on a minimum of two independent tests.
With `CS(=O)(=O)c1cccc(C(=O)N2C=CC[C@@H]2C(=O)N[C@@H](c2ccc(C(F)(F)F)cc2F)C2CC2)c1` [Example 377, (2R)—N—((R)-cyclopropyl(2-fluoro-4-(trifluoromethyl)phenyl)methyl)-1-(3-(methylsulfonyl)benzoyl)-2,3-dihydro-1H-pyrrole-2-carboxamide], the AC1.4 came to 1.216 µM. The same measure for `CC(NC(=O)[C@@H](C)N(C)C(=O)c1cccc(S(=O)(=O)N2CC(C#N)C2)c1)c1ccc(Cl)cc1` (stereo partly drawn) [Example 298, N-((2R)-1-((1-(4-chlorophenyl)ethyl)amino)-1-oxopropan-2-yl)-3-((3-cyanoazetidin-1-yl)sulfonyl)-N-methylbenzamide]: 0.7905 µM; for `Cc1cccc(CNC(=O)[C@H]2CCCN2C(=O)[C@H]2CCCN(S(=O)(=O)N3CC(C#N)C3)C2)c1F` [Example 606, 1-(((3S)-1-((3-cyano-1-azetidinyl)sulfonyl)-3-piperidinyl)carbonyl)-N-(2-fluoro-3-methylbenzyl)-D-prolinamide]: 3.696 µM; for `CS(=O)(=O)c1cccc(C(=O)N2CCC[C@@H]2C(=O)N[C@@H](c2ccc(Cl)c(F)c2)C2COC2)c1` [Example 255, N-((R)-(4-chloro-3-fluorophenyl)(3-oxetanyl)methyl)-1-(3-(methylsulfonyl)benzoyl)-D-prolinamide]: 0.6167 µM. The same measure for `CC(C)(C)[C@@H](NC(=O)[C@H]1CCCN1C(=O)c1cccc(S(=O)(=O)N2CC(C#N)C2)c1)c1ccc(C(F)(F)F)cc1` [Example 627, 1-(3-((3-cyano-1-azetidinyl)sulfonyl)benzoyl)-N-((1R)-2,2-dimethyl-1-(4-(trifluoromethyl)phenyl)propyl)-D-prolinamide]: 4.037 µM. The same measure for `NC(=O)C1(c2cccc(C(=O)N3CCC[C@@H]3C(=O)N[C@@H](c3ccc(C(F)(F)F)cc3F)C3CC3)c2)CC1` [Example 533, 1-(3-(1-carbamoylcyclopropyl)benzoyl)-N-((R)-cyclopropyl(2-fluoro-4-(trifluoromethyl)phenyl)methyl)-D-prolinamide]: 2.5883 µM. Molecule `CS(=O)(=O)c1ccc(N2CC(C#N)C2)c(C(=O)N2CCC[C@@H]2C(=O)N[C@@H](c2ccc(C(F)(F)F)cc2F)C2CC2)c1` [Example 550, (R)-1-(2-(3-cyanoazetidin-1-yl)-5-(methylsulfonyl)benzoyl)-N—((R)-cyclopropyl(2-fluoro-4-(trifluoromethyl)phenyl)methyl)pyrrolidine-2-carboxamide] returned an AC1.4 of 2.8425 µM.

For `CS(=O)(=O)c1cccc(C(=O)N2CCC(F)(F)CC2C(=O)N[C@@H](c2ccc(C(F)(F)F)cc2F)C2CC2)c1` (stereo partly drawn) [Example 525, N-((R)-cyclopropyl(2-fluoro-4-(trifluoromethyl)phenyl)methyl)-4,4-difluoro-1-(3-(methylsulfonyl)benzoyl)piperidine-2-carboxamide], the AC1.4 is 2.4285 µM. `CS(=O)(=O)c1cccc(C(=O)N2[C@@H](C(=O)N[C@@H](c3cc(F)c(Cl)cc3F)C3(F)COC3)C[C@H]3C[C@H]32)c1` [Example 812, (1R,3R,5R)-N-((S)-(4-Chloro-2,5-difluorophenyl)(3-fluorooxetan-3-yl)methyl)-2-(3-(methylsulfonyl)benzoyl)-2-azabicyclo[3.1.0]hexane-3-carboxamide] displayed an AC1.4 of 1.5766 µM.

Take `CS(=O)(=O)c1cncc(C(=O)N2CCC(C(F)(F)F)C2C(=O)N[C@@H](c2cc(F)c(C(F)(F)F)cc2F)C2CC2)c1` (stereo partly drawn) [Example 241, N-((R)-cyclopropyl(2,5-difluoro-4-(trifluoromethyl)phenyl)methyl)-1-(5-(methylsulfonyl)nicotinoyl)-3-(trifluoromethyl)pyrrolidine-2-carboxamide]: the AC1.4 is 0.5692 µM. `CS(=O)(=O)c1cncc(C(=O)N2CCCC[C@@H]2C(=O)N[C@@H](c2cc(F)c(Cl)cc2F)C2CC2)c1` [Example 292, (2R)-N-((R)-(4-chloro-2,5-difluorophenyl)(cyclopropyl)methyl)-1-((5-(methylsulfonyl)-3-pyridinyl)carbonyl)-2-piperidinecarboxamide] came in with an AC1.4 of 0.7577 µM.

For `N#CC1CN(S(=O)(=O)N2CCCC(F)(C(=O)N3CCC[C@@H]3C(=O)NCc3ccc(C(F)(F)F)cc3)C2)C1` (stereo partly drawn) [Example 514, (2R)-1-(1-((3-cyanoazetidin-1-yl)sulfonyl)-3-fluoropiperidine-3-carbonyl)-N-(4-(trifluoromethyl)benzyl)pyrrolidine-2-carboxamide], the AC1.4 was 2.433 µM. With `CCCS(=O)(=O)c1cccc(C(=O)N2CCCC[C@@H]2C(=O)N[C@@H](c2ccc(C(F)(F)F)cc2F)C2CC2)c1` [Example 89, (2R)-N-((R)-cyclopropyl(2-fluoro-4-(trifluoromethyl)phenyl)methyl)-1-(3-(propylsulfonyl)benzoyl)-2-piperidinecarboxamide] the figure was 0.1357 µM.

For the molecule `CCN(CC)S(=O)(=O)c1cccc(C(=O)N2CCC[C@@H]2C(=O)NCc2ccc(C(F)(F)F)cc2)c1` [Example 564, 1-(3-(diethylsulfamoyl)benzoyl)-N-(4-(trifluoromethyl)benzyl)-D-prolinamide], the AC1.4 was 3.077 µM. In turn, `N#CC1(c2cccc(C(=O)N3CCC[C@@H]3C(=O)N[C@@H](c3ccc(C(F)(F)F)cc3F)C3CC3)c2)CC1` [Example 604, 1-(3-(l-cyanocyclopropyl)benzoyl)-N-((R)-cyclopropyl(2-fluoro-4-(trifluoromethyl)phenyl)methyl)-D-prolinamide] yielded an AC1.4 of 3.679 µM. Molecule `CC(=O)N1CC(F)(c2cccc(C(=O)N3CCC[C@@H]3C(=O)N[C@@H](c3ccc(C(F)(F)F)cc3F)C3CC3)c2)C1` [Example 796, 1-(3-(l-acetyl-3-fluoro-3-azetidinyl)benzoyl)-N-((R)-cyclopropyl(2-fluoro-4-(trifluoromethyl)phenyl)methyl)-D-prolinamide] displayed an AC1.4 of 9.426 µM. The same measure for `N#CC1CN(S(=O)(=O)N2CCC[C@H](C(=O)N3CCC[C@@H]3C(=O)N[C@H](CCO)c3ccc(C(F)(F)F)cc3)C2)C1` [Example 36, 1-(((3S)-1-((3-cyano-1-azetidinyl)sulfonyl)-3-piperidinyl)carbonyl)-N-((1R)-3-hydroxy-1-(4-(trifluoromethyl)phenyl)propyl)-D-prolinamide]: 0.03765 µM; for `C[C@H](C(=O)N[C@H](C)c1ccc(C(F)(F)F)cc1)N(C)C(=O)c1cccc(S(=O)(=O)N2CC(C#N)C2)c1` [Example 121, 3-((3-cyano-1-azetidinyl)sulfonyl)-N-methyl-N-((1R)-1-methyl-2-oxo-2-(((1R)-1-(4-(trifluoromethyl)phenyl)ethyl)amino)ethyl)benzamide]: 0.1828 µM. With `NC(=O)[C@H]1C[C@@H](S(=O)(=O)N2CCC[C@H](C(=O)N3CCC[C@@H]3C(=O)NCc3ccc(C(F)(F)F)cc3)C2)C1` [Example 425, 1-(((3S)-1-((cis-3-carbamoylcyclobutyl)sulfonyl)-3-piperidinyl)carbonyl)-N-(4-(trifluoromethyl)benzyl)-D-prolinamide] the figure was 1.5805 µM; with `O=C(N[C@@H](c1ccc(C(F)(F)F)cc1F)C1CC1)[C@H]1C[C@H]2C[C@H]2N1C(=O)c1ccnc(C(F)F)c1` [Example 605, (1R,3R,5R)-N-((R)-cyclopropyl(2-fluoro-4-(trifluoromethyl)phenyl)methyl)-2-((2-(difluoromethyl)-4-pyridinyl)carbonyl)-2-azabicyclo[3.1.0]hexane-3-carboxamide], 3.685 µM; with `CN1C[C@H](C(=O)N[C@@H](c2ccc(C(F)(F)F)cc2F)C2CC2)N(C(=O)c2cccc(S(C)(=O)=O)c2)C1=O` [Example 693, (4R)-N-((R)-cyclopropyl(2-fluoro-4-(trifluoromethyl)phenyl)methyl)-1-methyl-3-(3-(methylsulfonyl)benzoyl)-2-oxo-4-imidazolidinecarboxamide], 5.425 µM. The same measure for `Cc1ccc(S(C)(=O)=O)cc1C(=O)N1CCC[C@@H]1C(=O)N[C@@H](c1ccc(C(F)(F)F)cc1F)C1CC1` [Example 666, N-((R)-cyclopropyl(2-fluoro-4-(trifluoromethyl)phenyl)methyl)-1-(2-methyl-5-(methylsulfonyl)benzoyl)-D-prolinamide]: 4.7065 µM; for `N#CC1CN(S(=O)(=O)c2cccc(C(=O)N3CC(F)(F)C[C@@H]3C(=O)NCc3ccc(C(F)(F)F)nc3)c2)C1` [Example 95, 1-((3-((3-cyano-1-azetidinyl)sulfonyl)phenyl)carbonyl)-4,4-difluoro-N-((6-(trifluoromethyl)-3-pyridinyl)methyl)-D-prolinamide]: 0.1446 µM. As to `CS(=O)(=O)c1cccc(C(=O)N2CC(F)(F)C[C@@H]2C(=O)N[C@@H](c2ccc(C(F)(F)F)cc2F)C2CC2)c1` [Example 320, N-((R)-cyclopropyl(2-fluoro-4-(trifluoromethyl)phenyl)methyl)-4,4-difluoro-1-(3-(methylsulfonyl)benzoyl)-D-prolinamide], the AC1.4 is 0.8613 µM. With `N#CC1CN(S(=O)(=O)N2CCO[C@H](C(=O)N3CCC[C@@H]3C(=O)NCc3ccc(C(F)(F)F)cc3F)C2)C1` [Example 116] the figure was 0.179 µM.
